We go through four compounds from publication PMC8426393, “Interactions of anti-COVID-19 drug candidates with hepatic transporters may cause liver toxicity and affect pharmacokinetics” (Scientific Reports, 2021).

The target of data set [1] is T1, ABCC4/MRP4 (Homo sapiens, UniProt O15439).
T1 construct: purchased Solvo Biotechnology (Budapest, Hungary); host or cells: HEK-293 cells
T1 sequence (O15439 1-1325): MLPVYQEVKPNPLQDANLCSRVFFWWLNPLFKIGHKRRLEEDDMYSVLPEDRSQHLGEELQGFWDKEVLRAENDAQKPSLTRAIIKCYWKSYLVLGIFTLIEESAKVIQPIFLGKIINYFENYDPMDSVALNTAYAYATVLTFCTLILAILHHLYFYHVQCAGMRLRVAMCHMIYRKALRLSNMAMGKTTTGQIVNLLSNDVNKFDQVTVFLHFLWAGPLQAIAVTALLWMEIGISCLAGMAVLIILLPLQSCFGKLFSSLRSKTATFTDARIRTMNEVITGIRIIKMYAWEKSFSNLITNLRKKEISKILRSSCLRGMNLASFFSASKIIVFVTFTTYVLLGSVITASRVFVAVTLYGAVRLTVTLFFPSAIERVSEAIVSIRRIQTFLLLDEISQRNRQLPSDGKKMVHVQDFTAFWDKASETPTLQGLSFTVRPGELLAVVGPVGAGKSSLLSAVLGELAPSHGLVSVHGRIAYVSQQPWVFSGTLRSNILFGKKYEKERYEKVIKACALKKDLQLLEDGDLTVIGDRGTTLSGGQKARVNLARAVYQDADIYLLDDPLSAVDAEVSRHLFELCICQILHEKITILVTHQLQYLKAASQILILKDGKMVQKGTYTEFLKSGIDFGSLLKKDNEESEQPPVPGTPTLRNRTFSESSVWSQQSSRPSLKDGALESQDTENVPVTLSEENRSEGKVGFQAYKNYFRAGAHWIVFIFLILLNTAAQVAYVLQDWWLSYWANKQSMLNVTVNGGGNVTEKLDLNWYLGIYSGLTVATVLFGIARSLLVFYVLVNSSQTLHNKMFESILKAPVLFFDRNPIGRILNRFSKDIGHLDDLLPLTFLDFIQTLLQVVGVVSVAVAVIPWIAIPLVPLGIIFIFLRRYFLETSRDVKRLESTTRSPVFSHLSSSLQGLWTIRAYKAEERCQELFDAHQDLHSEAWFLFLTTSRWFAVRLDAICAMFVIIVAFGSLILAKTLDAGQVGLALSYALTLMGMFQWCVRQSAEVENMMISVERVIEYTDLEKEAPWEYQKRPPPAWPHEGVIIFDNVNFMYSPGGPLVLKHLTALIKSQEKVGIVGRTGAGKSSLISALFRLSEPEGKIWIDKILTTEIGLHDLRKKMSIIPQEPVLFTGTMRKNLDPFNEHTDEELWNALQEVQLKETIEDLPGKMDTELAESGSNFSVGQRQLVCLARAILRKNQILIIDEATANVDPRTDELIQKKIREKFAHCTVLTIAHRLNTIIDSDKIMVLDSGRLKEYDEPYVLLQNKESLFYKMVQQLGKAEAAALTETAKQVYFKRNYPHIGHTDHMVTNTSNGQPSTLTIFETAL
Nature of the data set: MRP4 vesicular transport: ATP-dependent DHEAS uptake into inverted HEK-293 membrane vesicles. It counts as biochemical. The settings on record: for ABCC4/MRP4 Type of effect: DHEAS 0.5 µM, 32 °C, HEK-293 vesicles; for inhibition at […]: up to 50 µM drug, read-out: maximum inhibition of MRP4-dependent substrate transport.

The target of data set [2] is T2, OATP1B3 (Homo sapiens, UniProt Q9NPD5).
T2 construct: expressed in transfected cells; host or cells: A431 cells (ATCC)
T2 sequence (Q9NPD5 1-702): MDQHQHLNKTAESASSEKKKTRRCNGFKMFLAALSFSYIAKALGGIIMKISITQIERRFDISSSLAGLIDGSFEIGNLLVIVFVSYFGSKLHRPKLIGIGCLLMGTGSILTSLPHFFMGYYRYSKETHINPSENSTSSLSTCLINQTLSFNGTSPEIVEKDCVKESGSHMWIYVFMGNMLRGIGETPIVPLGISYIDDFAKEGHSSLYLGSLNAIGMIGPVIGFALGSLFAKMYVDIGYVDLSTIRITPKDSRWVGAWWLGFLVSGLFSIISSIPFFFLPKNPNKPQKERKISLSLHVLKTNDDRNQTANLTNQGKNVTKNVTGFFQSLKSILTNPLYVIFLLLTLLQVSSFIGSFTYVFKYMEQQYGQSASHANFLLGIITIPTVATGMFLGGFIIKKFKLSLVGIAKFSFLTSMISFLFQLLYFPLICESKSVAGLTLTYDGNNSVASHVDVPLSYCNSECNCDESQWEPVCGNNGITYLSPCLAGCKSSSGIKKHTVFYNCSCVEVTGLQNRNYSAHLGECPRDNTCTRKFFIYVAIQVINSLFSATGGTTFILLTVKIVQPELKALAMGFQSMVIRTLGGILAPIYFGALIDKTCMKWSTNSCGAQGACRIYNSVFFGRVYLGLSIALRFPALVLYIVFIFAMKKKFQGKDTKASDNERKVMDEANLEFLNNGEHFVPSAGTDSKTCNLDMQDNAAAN
Nature of the data set: OATP1B3-dependent pyranine uptake in overexpressing A431 cells. It counts as cell-based. The note with it: for OATP1B3 Type of effect: A431 cells.

Data set [3] relates to ABCG2/BCRP. Set-up: method as in Telbisz et al., 2021. The note with it: vesicular transporter assay, measured previously; ref Telbisz et al., 2021; cited from earlier work.
The conditions of data set [4]: cited from earlier work.
Setting [5] is: human, probe DHEAS (0.5 µM unlabeled plus 0.2 µCi radiolabeled).

Like-named read-outs stand apart in the source and are kept apart here.

As a reminder, the IC50 is the point on the concentration scale where inhibition reaches its midpoint. Broadly, the Cmax is the highest concentration seen after dosing. Regarding `CCC(CC)COC(=O)[C@H](C)N[P@](=O)(OC[C@H]1O[C@@](C#N)(c2ccc3c(N)ncnn23)[C@H](O)[C@@H]1O)Oc1ccccc1` [REM, remdesivir], the IC50 in data set [1] is 2.9 µM; in data set [2] it was 4.3 µM; in data set [3], > 50 µM. For the same compound, the IC50 at […] in data set [1] (setting [5]) was ~2.3 µM. Also, in data set [2] (pyranine 20 µM, 30 min, 37 °C), the “OATP1B3 Type of effect” value is “inh”. Also, the “ABCG2/BCRP type of effect” value in data set [3] was “inh”. The T1/2 in data set [4] (clearance from the human body) was 1.15 h. For the same compound, the Cmax in data set [4] (intravenous 100 mg, healthy adults, ref FDA label 214787Orig1s000) is 3.7 µM.

For orientation: inhibition means the change of the read-out against control, counted positive when it falls. As for `Cc1cccc(C)c1OCC(=O)N[C@@H](Cc1ccccc1)[C@@H](O)C[C@H](Cc1ccccc1)NC(=O)[C@H](C(C)C)N1CCCNC1=O` [LOP, lopinavir], the “ABCC4/MRP4 Type of effect” value in data set [1] is “No effect”. Also, in data set [1] (setting [5]), the inhibition at […] was in the range of 10 to 30%. Moreover, the IC50 in data set [2] turned out to be 2.6 µM. In data set [3], the “ABCG2/BCRP type of effect” value is on record as “inh” and the half-inhibitory concentration (IC50) was 4.2 µM. For the same compound, the “peak plasma concentrations in vivo” value in data set [4] (Kaletra 400 mg lopinavir and 100 mg ritonavir in combination) was 11 to 20 µM.

As to `CCC(C)C1OC2(CCC1C)CC1CC(CC=C(C)C(OC3CC(OC)C(OC4CC(OC)C(O)C(C)O4)C(C)O3)C(C)C=CC=C3COC4C(O)C(C)=CC(C(=O)O1)C34O)O2` (centres unmarked) [IVE, ivermectin], the “ABCC4/MRP4 Type of effect” value in data set [1] is given as “No effect”. The “OATP1B3 R value” in data set [2] (DDI estimate, cut off 1.1, 165 µg/kg IVE dose, peak plasma 46 ng/ml) is 1.07. Also, in data set [2] (approximate IC50, pyranine 20 µM, 30 min, 37 °C), 1.4 µM corresponded to half-maximal inhibition (IC50). Moreover, the “OATP1B3 Type of effect” value in data set [2] (pyranine 20 µM, 30 min, 37 °C) is given as “inh”. Moreover, in data set [3], the “ABCG2/BCRP type of effect” value was “inh” and the IC50 is 1.1 µM. The peak plasma concentration in data set [4] (165 µg/kg IVE dose, ref FDA guideline for stromectol) is 46 ng/mL.

As for `NC(=O)c1nc(F)c[nH]c1=O` [FAV, favipiravir], in data set [1] (setting [5]), the inhibition at […] was in the range of 10 to 30%. Also, in data set [2] (pyranine 20 µM, 30 min, 37 °C), the “OATP1B3 Type of effect” value is listed as “did not modify OATP functionality”.
